From US20050123477A1, “Benzothiazole derivatives for in vivo imaging of amloid plaques” (priority 2002, published 2005)

How the values were obtained:
[1] = LogP and delta LogP; assay type: physicochemical
[2] = Pharmacokinetics / biodistribution; assay type: in vivo, normal male wistar rats; conditions: for percentage injected dose, Blood / percentage injected dose, Brain / percentage injected dose, Fat / percentage injected dose, Kidney / percentage injected dose, LI (large intestines) / percentage injected dose, Muscle / percentage injected dose, SI (small intestines) / percentage injected dose, Skin / percentage injected dose, Spleen / percentage injected dose, Stomach / percentage injected dose, inj site / percentage injected dose, liver / percentage injected dose, lung / percentage injected dose, thyroid / percentage injected dose, urine: tail vein
Method: Compound 1 IMQ1961 prepared by Amersham Biosciences 250 μCi/ml (specific activity 2000Ci/mmol) freshly diluted to give 1 μCi/0.1 ml volume injection bolus. 15 normal male wistar rats 150-180 g (Charles River).
Male wistar rats were anaethetised briefly prior to injection with Compound 1 (1 μCi, 0.1 ml bolus tail vein). Biodistributions were performed at five time points (5, 15, 30, 60 and 120 mins) in triplicate animals in which tissues from brain, blood, muscle, kidney, spleen, stomach, small intestines, large intestines and faeces, bladder and urine, fat, skin and thyroid were dissected and counted for distribution of the compound in the body in a Wallac Wizzard gamma counter.
Percentage injected dose calculations were made and plotted using the Qk pharmacokinetics program to determine t½ α, and volume of distribution (VD). Relative retention (RR) and Brain:tissue ratios were calculated as follows; [formula] [formula] Results and Discussion

Cc1cc(-c2nc3cc([125I])ccc3s2)ccc1N [Compound 1, 5-[^125I]-iodo-2-(4′-amino-3′-methylphenyl)benzothiazole]
LogP [1]: 1.75
ΔLogP [1]: −0.38
t½ (α) of clearance from brain ([2]; 1 μCi tail vein bolus): 12.4 min
relative retention, blood ([2]; 5 minutes): 1.04
relative retention, brain ([2]; 5 minutes): 1.01
thyroid uptake ([2]; over two hour experiment, indicates in vivo stability to deiodination): < 1%
Clearance through the body ([2]; rat, in vivo): largely via the hepatobiliary system
percentage injected dose, Blood ([2]; 5 min): 6.05 % ID
percentage injected dose, Brain ([2]; 5 min): 0.94 % ID
percentage injected dose, Fat ([2]; 5 min): 30.82 % ID
percentage injected dose, Kidney ([2]; 5 min): 3.14 % ID
percentage injected dose, LI (large intestines) ([2]; 5 min): 1.53 % ID
percentage injected dose, Muscle ([2]; 5 min): 21.49 % ID
percentage injected dose, SI (small intestines) ([2]; 5 min): 9.04 % ID
percentage injected dose, Skin ([2]; 5 min): 8.92 % ID
percentage injected dose, Spleen ([2]; 5 min): 0.69 % ID
percentage injected dose, Stomach ([2]; 5 min): 1.82 % ID
percentage injected dose, inj site ([2]; 5 min): 2.12 % ID
percentage injected dose, liver ([2]; 5 min): 19.47 % ID
percentage injected dose, lung ([2]; 5 min): 1.40 % ID
percentage injected dose, thyroid ([2]; 5 min): 0.16 % ID
percentage injected dose, urine ([2]; 5 min): 0.04 % ID
percentage injected dose, Blood ([2]; 15 min): 4.14 % ID
percentage injected dose, Brain ([2]; 15 min): 0.75 % ID
percentage injected dose, Fat ([2]; 15 min): 36.31 % ID
percentage injected dose, Kidney ([2]; 15 min): 1.60 % ID
percentage injected dose, LI (large intestines) ([2]; 15 min): 1.77 % ID
percentage injected dose, Muscle ([2]; 15 min): 19.83 % ID
percentage injected dose, SI (small intestines) ([2]; 15 min): 12.60 % ID
percentage injected dose, Skin ([2]; 15 min): 12.80 % ID
percentage injected dose, Spleen ([2]; 15 min): 0.32 % ID
percentage injected dose, Stomach ([2]; 15 min): 2.56 % ID
percentage injected dose, inj site ([2]; 15 min): 1.86 % ID
percentage injected dose, liver ([2]; 15 min): 7.48 % ID
percentage injected dose, lung ([2]; 15 min): 0.49 % ID
percentage injected dose, thyroid ([2]; 15 min): 0.16 % ID
percentage injected dose, urine ([2]; 15 min): 2.10 % ID
percentage injected dose, Blood ([2]; 30 min): 3.58 % ID
percentage injected dose, Brain ([2]; 30 min): 0.49 % ID
percentage injected dose, Fat ([2]; 30 min): 59.02 % ID
percentage injected dose, Kidney ([2]; 30 min): 0.95 % ID
percentage injected dose, LI (large intestines) ([2]; 30 min): 1.90 % ID
percentage injected dose, Muscle ([2]; 30 min): 12.59 % ID
percentage injected dose, SI (small intestines) ([2]; 30 min): 21.93 % ID
percentage injected dose, Skin ([2]; 30 min): 16.90 % ID
percentage injected dose, Spleen ([2]; 30 min): 0.19 % ID
percentage injected dose, Stomach ([2]; 30 min): 6.66 % ID
percentage injected dose, inj site ([2]; 30 min): 3.05 % ID
percentage injected dose, liver ([2]; 30 min): 4.46 % ID
percentage injected dose, lung ([2]; 30 min): 0.48 % ID
percentage injected dose, thyroid ([2]; 30 min): 0.39 % ID
percentage injected dose, urine ([2]; 30 min): 1.63 % ID
percentage injected dose, Blood ([2]; 60 min): 2.77 % ID
percentage injected dose, Brain ([2]; 60 min): 0.29 % ID
percentage injected dose, Fat ([2]; 60 min): 73.92 % ID
percentage injected dose, Kidney ([2]; 60 min): 0.63 % ID
percentage injected dose, LI (large intestines) ([2]; 60 min): 7.75 % ID
percentage injected dose, Muscle ([2]; 60 min): 7.79 % ID
percentage injected dose, SI (small intestines) ([2]; 60 min): 28.42 % ID
percentage injected dose, Skin ([2]; 60 min): 17.14 % ID
percentage injected dose, Spleen ([2]; 60 min): 0.15 % ID
percentage injected dose, Stomach ([2]; 60 min): 8.98 % ID
percentage injected dose, inj site ([2]; 60 min): 1.83 % ID
percentage injected dose, liver ([2]; 60 min): 3.12 % ID
percentage injected dose, lung ([2]; 60 min): 0.34 % ID
percentage injected dose, thyroid ([2]; 60 min): 0.17 % ID
percentage injected dose, urine ([2]; 60 min): 8.39 % ID
percentage injected dose, Blood ([2]; 120 min): 2.27 % ID
percentage injected dose, Brain ([2]; 120 min): 0.18 % ID
percentage injected dose, Fat ([2]; 120 min): 55.62 % ID
percentage injected dose, Kidney ([2]; 120 min): 0.45 % ID
percentage injected dose, LI (large intestines) ([2]; 120 min): 3.12 % ID
percentage injected dose, Muscle ([2]; 120 min): 5.60 % ID
percentage injected dose, SI (small intestines) ([2]; 120 min): 26.86 % ID
percentage injected dose, Skin ([2]; 120 min): 12.89 % ID
percentage injected dose, Spleen ([2]; 120 min): 0.08 % ID
percentage injected dose, Stomach ([2]; 120 min): 9.29 % ID
percentage injected dose, inj site ([2]; 120 min): 2.62 % ID
percentage injected dose, liver ([2]; 120 min): 2.39 % ID
percentage injected dose, lung ([2]; 120 min): 0.23 % ID
percentage injected dose, thyroid ([2]; 120 min): 0.95 % ID
percentage injected dose, urine ([2]; 120 min): 10.02 % ID
